# Results from patent US7655429B2, “Immunoassays for topiramate” (Seradyn, Inc., priority 2004, dated 2010).
# System: anti-topiramate antibodies prepared with immunogen (18)
# Experiment: ELISA binding inhibition study (avidity), free topiramate versus coated antigen
# Set-up: species or system Rabbit; Abs: unit not given here
# Experimental: ELISA plates for use in an ELISA assay are prepared in order to study the polyclonal antibody prepared as described in Example 21. As such, various topiramate antigens (16), (19), and (20) are coated on different ELISA plates before being subjected to the anti-topiramate antibody and competing free topiramate. More particularly, the topiramate antigens are diluted in coating buffer, and then added to the wells of ELISA plate. After the ELISA plate is incubated for 60 min at 37° C., the solvent in the coating buffer is decanted and a blocking buffer is added to the plate. The plate is incubated again for 60 min at 37° C., and the solvent in the blocking buffer is decanted from the plate. The ELISA plate is then stored with the blocking agent in the wells at 2-8° C. for up to 1 week. The avidity of the anti-topiramate antibodies prepared with immunogen (17) for topiramate analogs are determined by a binding inhibition study. As such, samples are prepared in 1 mL of PBS at pH 7.4 with 0.1% BSA. A composition having 30% Bmax titer or 50% Bmax titer is used to divide the obtained titer value into approximately half the titer value. Using 30% Bmax, an antibody titer of 1:10,000 is diluted to 1:5,000 during the sample preparation stage. About 50 μL of topiramate at different concentrations or calibrator values, (0, 2, 4, 8, 16, 32 μg/ml) are then applied to a plate as prepared in accordance with Example 22. About 50 μL of the diluted antibody is dispensed into the plate, and the compositions in the plate are mixed for 1 min on a horizontal plate shaker. The plate is characterized by a first row not containing topiramate or anti-topiramate antibody, wherein the first row is used as a negative control. A second row not containing topiramate is used as the positive control. The plate is incubated for 60 min, and washed three times with 250 μL of PBS at pH 7.4 with 0.05% tween. About 125 μL of a diluted second antibody conjugate such as antigens (16), (19), or (20), in PBS at pH 7.4 is added to each well of the plate. Titer is determined experimentally by the plate being incubated for 60 min at 37° C. and washed 3 times with 250 μL PBS, pH 7.4 with 0.05% tween. Subsequently, about 125 μL of ABTS substrate is added to each well of the plate and incubated for 20 min. The avidity of the anti-topiramate antibodies prepared with immunogen (18) for topiramate analogs is determined by a binding inhibition study performed with an experimental protocol substantially similar as in Example 24.
# [1] = Antigen 16, Topiramate 2 μg/ml, Rabbit No. 5490
# [2] = Antigen 16, Topiramate 2 μg/ml, Rabbit No. 5495
# [3] = Antigen 16, Topiramate 4 μg/ml, Rabbit No. 5490
# [4] = Antigen 16, Topiramate 4 μg/ml, Rabbit No. 5495
# [5] = Antigen 16, Topiramate 8 μg/ml, Rabbit No. 5490
# [6] = Antigen 16, Topiramate 8 μg/ml, Rabbit No. 5495
# [7] = Antigen 16, Topiramate 16 μg/ml, Rabbit No. 5490
# [8] = Antigen 16, Topiramate 16 μg/ml, Rabbit No. 5495
# [9] = Antigen 16, Topiramate 32 μg/ml, Rabbit No. 5490
# [10] = Antigen 16, Topiramate 32 μg/ml, Rabbit No. 5495
# [11] = Antigen 19, Topiramate 2 μg/ml, Rabbit No. 5490
# [12] = Antigen 19, Topiramate 2 μg/ml, Rabbit No. 5495
# [13] = Antigen 19, Topiramate 4 μg/ml, Rabbit No. 5490
# [14] = Antigen 19, Topiramate 4 μg/ml, Rabbit No. 5495
# [15] = Antigen 19, Topiramate 8 μg/ml, Rabbit No. 5490
# [16] = Antigen 19, Topiramate 8 μg/ml, Rabbit No. 5495
# [17] = Antigen 19, Topiramate 16 μg/ml, Rabbit No. 5490
# [18] = Antigen 19, Topiramate 16 μg/ml, Rabbit No. 5495
# [19] = Antigen 19, Topiramate 32 μg/ml, Rabbit No. 5490
# [20] = Antigen 19, Topiramate 32 μg/ml, Rabbit No. 5495
# [21] = Antigen 20, Topiramate 2 μg/ml, Rabbit No. 5490
# [22] = Antigen 20, Topiramate 2 μg/ml, Rabbit No. 5495
# [23] = Antigen 20, Topiramate 4 μg/ml, Rabbit No. 5490
# [24] = Antigen 20, Topiramate 4 μg/ml, Rabbit No. 5495
# [25] = Antigen 20, Topiramate 8 μg/ml, Rabbit No. 5490
# [26] = Antigen 20, Topiramate 8 μg/ml, Rabbit No. 5495
# [27] = Antigen 20, Topiramate 16 μg/ml, Rabbit No. 5490
# [28] = Antigen 20, Topiramate 16 μg/ml, Rabbit No. 5495
# [29] = Antigen 20, Topiramate 32 μg/ml, Rabbit No. 5490
# [30] = Antigen 20, Topiramate 32 μg/ml, Rabbit No. 5495
compound,measurement,setting,value
"CC1(C)O[C@@H]2[C@@H](CO[C@@]3(COS(N)(=O)=O)OC(C)(C)O[C@@H]23)O1 [Topiramate, 2,3:4,5-di-O-isopropylidene-beta-D-fructopyranose sulfamate]",Abs,[1],0.25
same,B/Bo,[1],0.35
same,Abs,[2],0.25
same,B/Bo,[2],0.35
same,Abs,[3],0.20
same,B/Bo,[3],0.28
same,Abs,[4],0.28
same,B/Bo,[4],0.39
same,Abs,[5],0.15
same,B/Bo,[5],0.21
same,Abs,[6],0.15
same,B/Bo,[6],0.21
same,Abs,[7],0.12
same,B/Bo,[7],0.17
same,Abs,[8],0.12
same,B/Bo,[8],0.17
same,Abs,[9],0.10
same,B/Bo,[9],0.14
same,Abs,[10],0.10
same,B/Bo,[10],0.14
same,Abs,[11],0.10
same,B/Bo,[11],0.18
same,Abs,[12],0.13
same,B/Bo,[12],0.20
same,Abs,[13],0.06
same,B/Bo,[13],0.10
same,Abs,[14],0.08
same,B/Bo,[14],0.12
same,Abs,[15],0.04
same,B/Bo,[15],0.07
same,Abs,[16],0.05
same,B/Bo,[16],0.08
same,Abs,[17],0.03
same,B/Bo,[17],0.06
same,Abs,[18],0.04
same,B/Bo,[18],0.06
same,Abs,[19],0.02
same,B/Bo,[19],0.04
same,Abs,[20],0.02
same,B/Bo,[20],0.03
same,Abs,[21],0.25
same,B/Bo,[21],0.63
same,Abs,[22],0.18
same,B/Bo,[22],0.53
same,Abs,[23],0.24
same,B/Bo,[23],0.60
same,Abs,[24],0.17
same,B/Bo,[24],0.50
same,Abs,[25],0.22
same,B/Bo,[25],0.55
same,Abs,[26],0.16
same,B/Bo,[26],0.47
same,Abs,[27],0.21
same,B/Bo,[27],0.53
same,Abs,[28],0.14
same,B/Bo,[28],0.41
same,Abs,[29],0.20
same,B/Bo,[29],0.50
same,Abs,[30],0.11
same,B/Bo,[30],0.32
